Reference: patent US4264577A, “Contraceptive methods and compositions” (Eli Lilly and Company, priority 1980, dated 1981)

Key:
[1] = Release from coated medicated dimethylpolysiloxane rods into water; format: physicochemical
Description: Dimethylpolysiloxane rubber rods (3 mm. diameter) containing 25% (W/W) sodium n-tetradecyl sulfate are prepared by the procedure described in Example 3, Method B. The rods are cut into one-inch pieces. A coating solution is prepared by dissolving 12.5 grams of dimethylpolysiloxane elastomer (DOW-Corning MDX-4-4210) in 37.5 ml of methylene chloride and then dissolving 1.88 grams of curing agent (Dow-Corning MDX-4-4210) therein. A straight pin is placed in the end of each one inch piece of rod. The piece of rod, held by the pin, is dipped into the above solution, and the rod is withdrawn from the solution and drained. The piece of rod is rotated as methylene chloride evaporates. The coated rods are placed in an oven at 120° C. for 10 minutes to cure the coating. The coated rods are then placed in a vacuum oven at 40° C. overnight to remove all methylene chloride. A second and third coat can be applied by the above method.
The release of sodium n-tetradecyl sulfate from the coated medicated rods, prepared as above-described, into water is shown in Table 10, below:
^(a) Weight of rods: 500 mg.; amount of water added: 10 ml.;
temperature: 37° C.; active compound determined by methylene blue

[2] = test system: zona pellucida of rabbit ova; assay: Removal of zona pellucida from ova by acrosin, in vitro; format: cell-based; settings: 10 μl. of 10 mg./ml. solution, 37° C.; sulfate
Description: In the absence of sodium n-tetradecyl sulfate, complete removal of the cumulus oophorus and zona pellucida is observed.
Female rabbits are given 100 units of pregnant mares serum (PMS), IM, and 134 units of HCG, IV. After 13 hours the animals are sacrificed and the ovaries are excised. The ovaries are submerged in calcium-free Ringer's solution. Ova are removed and placed in 1 ml. of calcium-free Ringer's solution The solutions are all shaken vigorously for 5 to 10 minutes, which rids the ova of the cumulus oophorus and the corona radiata. Acrosin (isolated from boar sperm) (100 μl., of a solution containing 2000 U/ml. in 0.1 M sodium acetate and 0.02 M calcium chloride) is added to each of 10 ova. To each of 10 other ova in the same medium is added 10 μl. of solution of sodium n-tetradecyl sulfate (10 mg./ml.) in calcium-free Ringer's solution. To 10 other ova is added […]. of calcium-free Ringer's solution as a control. The solutions are all incubated at 37° C. The zona pellucida is observed at 15 minute intervals with an American Optical stereomicroscope. In the absence of sodium n-tetradecyl sulfate, the zona pellucida is completely removed.

[3] = Drug release rate in vitro from dimethylpolysiloxane rubber rod, Method B (water, methylene blue method); format: physicochemical; settings: rod 341.4 mg, 10% W/W
Description: A dimethylpolysiloxane rubber rod (3 cm. long, 3 mm. diameter) weighing 341.4 mg. and containing 10% (W/W) of dispersed sodium n-tetradecyl sulfate (prepared by Example 3, Method B, lot no. 225-1) is placed in a container and is covered with 10 ml. of water. The rod and the water are incubated together at 37° C. for a seven-day period, after which the water is removed. The sodium n-tetradecyl sulfate in the water is determined by the methylene blue method as described by K. Hiyashi, Analytical Biochemistry, 67, 503 (1975).
The above procedure may be repeated at 7-day intervals by adding fresh water to the rod after each removal of water for assay. Table 5, below, gives the results of a test performed as above-described for 140 days.

With `CCCCCCCCCCCCCCOS(=O)(=O)[O-].[Na+]` [n-tetradecyl, sodium n-tetradecyl sulfate] the “Amount of sodium n-tetradecyl sulfate released (mg. per 7 days)” value (from here on “Amount … (mg. per 7 days)”) ([1]; 1 coat, Days 7, 500 mg rod, 25% W/W, 10 ml water 37° C.) was 0 mg. per 7 days, the “Amount … (mg. per 7 days)” value ([1]; 1 coat, Days 14) was 0.14 mg. per 7 days and the “Amount … (mg. per 7 days)” value ([1]; 1 coat, Days 21) was 77.4 mg. per 7 days. For the same molecule, the “Amount … (mg. per 7 days)” value ([1]; 1 coat, Days 28) was 414.0 mg. per 7 days, the “Amount … (mg. per 7 days)” value ([1]; 1 coat, Days 35) was 128.0 mg. per 7 days and the “Amount … (mg. per 7 days)” value ([1]; 1 coat, Days 42) was 586.0 mg. per 7 days. For the same molecule, the “Amount … (mg. per 7 days)” value ([1]; 1 coat, Days 49) was 370.0 mg. per 7 days, the “Amount … (mg. per 7 days)” value ([1]; 1 coat, Days 56) was 524.0 mg. per 7 days and the “Amount … (mg. per 7 days)” value ([1]; 1 coat, Days 63) was 571.0 mg. per 7 days. The “Amount … (mg. per 7 days)” value ([1]; 1 coat, Days 70) was 524.0 mg. per 7 days, the “Amount … (mg. per 7 days)” value ([1]; 1 coat, Days 77) was 471.0 mg. per 7 days and the “Amount … (mg. per 7 days)” value ([1]; 1 coat, Days 84) was 386.0 mg. per 7 days. The “Amount … (mg. per 7 days)” value ([1]; 1 coat, Days 91) was 330.0 mg. per 7 days, the “Amount … (mg. per 7 days)” value ([1]; 1 coat, Days 98) was 349.0 mg. per 7 days and the “Amount … (mg. per 7 days)” value ([1]; 1 coat, Days 105) was 240.0 mg. per 7 days. The “Amount … (mg. per 7 days)” value ([1]; 1 coat, Days 112) was 329.0 mg. per 7 days, the “Amount … (mg. per 7 days)” value ([1]; 1 coat, Days 119) was 286.0 mg. per 7 days and the “Amount … (mg. per 7 days)” value ([1]; 1 coat, Days 126) was 430.0 mg. per 7 days. For the same molecule, the “Amount … (mg. per 7 days)” value ([1]; 2 coat, Days 7) was 0 mg. per 7 days, the “Amount … (mg. per 7 days)” value ([1]; 2 coat, Days 14) was 0 mg. per 7 days and the “Amount … (mg. per 7 days)” value ([1]; 2 coat, Days 21) was “.03 mg. per 7 days”. For the same molecule, the “Amount … (mg. per 7 days)” value ([1]; 2 coat, Days 28) was 628.0 mg. per 7 days, the “Amount … (mg. per 7 days)” value ([1]; 2 coat, Days 35) was 124.0 mg. per 7 days and the “Amount … (mg. per 7 days)” value ([1]; 2 coat, Days 42) was 96.0 mg. per 7 days. The “Amount … (mg. per 7 days)” value ([1]; 2 coat, Days 49) was 186.0 mg. per 7 days, the “Amount … (mg. per 7 days)” value ([1]; 2 coat, Days 56) was 135.0 mg. per 7 days and the “Amount … (mg. per 7 days)” value ([1]; 2 coat, Days 63) was 183.0 mg. per 7 days. For the same molecule, the “Amount … (mg. per 7 days)” value ([1]; 2 coat, Days 70) was 174.0 mg. per 7 days, the “Amount … (mg. per 7 days)” value ([1]; 2 coat, Days 77) was 229.0 mg. per 7 days and the “Amount … (mg. per 7 days)” value ([1]; 2 coat, Days 84) was 170.0 mg. per 7 days. For the same molecule, the “Amount … (mg. per 7 days)” value ([1]; 2 coat, Days 91) was 200.0 mg. per 7 days, the “Amount … (mg. per 7 days)” value ([1]; 2 coat, Days 98) was 190.0 mg. per 7 days and the “Amount … (mg. per 7 days)” value ([1]; 2 coat, Days 105) was 224.0 mg. per 7 days. For the same molecule, the “Amount … (mg. per 7 days)” value ([1]; 2 coat, Days 112) was 121.0 mg. per 7 days, the “Amount … (mg. per 7 days)” value ([1]; 2 coat, Days 119) was 100.0 mg. per 7 days and the “Amount … (mg. per 7 days)” value ([1]; 2 coat, Days 126) was 92.0 mg. per 7 days. The “Amount … (mg. per 7 days)” value ([1]; 3 coat, Days 7) was 0 mg. per 7 days, the “Amount … (mg. per 7 days)” value ([1]; 3 coat, Days 14) was “.02 mg. per 7 days” and the “Amount … (mg. per 7 days)” value ([1]; 3 coat, Days 21) was 0 mg. per 7 days. For the same molecule, the “Amount … (mg. per 7 days)” value ([1]; 3 coat, Days 28) was 10.0 mg. per 7 days, the “Amount … (mg. per 7 days)” value ([1]; 3 coat, Days 35) was 142.0 mg. per 7 days and the “Amount … (mg. per 7 days)” value ([1]; 3 coat, Days 42) was 0 mg. per 7 days. The “Amount … (mg. per 7 days)” value ([1]; 3 coat, Days 49) was 186.0 mg. per 7 days, the “Amount … (mg. per 7 days)” value ([1]; 3 coat, Days 56) was 143.0 mg. per 7 days and the “Amount … (mg. per 7 days)” value ([1]; 3 coat, Days 63) was 194.0 mg. per 7 days. The “Amount … (mg. per 7 days)” value ([1]; 3 coat, Days 70) was 174.0 mg. per 7 days, the “Amount … (mg. per 7 days)” value ([1]; 3 coat, Days 77) was 157.0 mg. per 7 days and the “Amount … (mg. per 7 days)” value ([1]; 3 coat, Days 84) was 160.0 mg. per 7 days. For the same molecule, the “Amount … (mg. per 7 days)” value ([1]; 3 coat, Days 91) was 140.0 mg. per 7 days, the “Amount … (mg. per 7 days)” value ([1]; 3 coat, Days 98) was 159.0 mg. per 7 days and the “Amount … (mg. per 7 days)” value ([1]; 3 coat, Days 105) was 196.0 mg. per 7 days. The “Amount … (mg. per 7 days)” value ([1]; 3 coat, Days 112) was 157.0 mg. per 7 days, the “Amount … (mg. per 7 days)” value ([1]; 3 coat, Days 119) was 150.0 mg. per 7 days and the “Amount … (mg. per 7 days)” value ([1]; 3 coat, Days 126) was 156.0 mg. per 7 days. The “state of zona pellucida in presence of acrosin” value [2] was “remains substantially intact”, the “Amount of sodium n-tetradecyl sulfate released Per day Calc.” value ([3]; Day 7) was 1.3 µg and the “Amount of sodium n-tetradecyl sulfate released Per 7 days” value ([3]; Day 7, 10 ml water 37° C.) was 9 µg. For the same molecule, the “Amount of sodium n-tetradecyl sulfate released Per 7 days” value ([3]; Day 14) was 1.9 µg, the “Amount of sodium n-tetradecyl sulfate released Per day Calc.” value ([3]; Day 14) was 0.3 µg and the “Amount of sodium n-tetradecyl sulfate released Per 7 days” value ([3]; Day 21) was 34.2 µg. The “Amount of sodium n-tetradecyl sulfate released Per day Calc.” value ([3]; Day 21) was 4.9 µg, the “Amount of sodium n-tetradecyl sulfate released Per 7 days” value ([3]; Day 28) was 160 µg and the “Amount of sodium n-tetradecyl sulfate released Per day Calc.” value ([3]; Day 28) was 22.8 µg. The “Amount of sodium n-tetradecyl sulfate released Per 7 days” value ([3]; Day 35) was 290 µg, the “Amount of sodium n-tetradecyl sulfate released Per day Calc.” value ([3]; Day 35) was 41.4 µg and the “Amount of sodium n-tetradecyl sulfate released Per 7 days” value ([3]; Day 42) was 144 µg. For the same molecule, the “Amount of sodium n-tetradecyl sulfate released Per day Calc.” value ([3]; Day 42) was 20.6 µg, the “Amount of sodium n-tetradecyl sulfate released Per 7 days” value ([3]; Day 49) was 947 µg and the “Amount of sodium n-tetradecyl sulfate released Per day Calc.” value ([3]; Day 49) was 135.3 µg. For the same molecule, the “Amount of sodium n-tetradecyl sulfate released Per 7 days” value ([3]; Day 56) was 133 µg, the “Amount of sodium n-tetradecyl sulfate released Per day Calc.” value ([3]; Day 56) was 19 µg and the “Amount of sodium n-tetradecyl sulfate released Per 7 days” value ([3]; Day 63) was 111 µg. The “Amount of sodium n-tetradecyl sulfate released Per day Calc.” value ([3]; Day 63) was 16 µg, the “Amount of sodium n-tetradecyl sulfate released Per 7 days” value ([3]; Day 70) was 333 µg and the “Amount of sodium n-tetradecyl sulfate released Per day Calc.” value ([3]; Day 70) was 47.5 µg. For the same molecule, the “Amount of sodium n-tetradecyl sulfate released Per 7 days” value ([3]; Day 77) was 111 µg, the “Amount of sodium n-tetradecyl sulfate released Per day Calc.” value ([3]; Day 77) was 16.0 µg and the “Amount of sodium n-tetradecyl sulfate released Per 7 days” value ([3]; Day 84) was 0 µg. For the same molecule, the “Amount of sodium n-tetradecyl sulfate released Per day Calc.” value ([3]; Day 84) was 0 µg, the “Amount of sodium n-tetradecyl sulfate released Per 7 days” value ([3]; Day 91) was 105 µg and the “Amount of sodium n-tetradecyl sulfate released Per day Calc.” value ([3]; Day 91) was 15 µg. For the same molecule, the “Amount of sodium n-tetradecyl sulfate released Per 7 days” value ([3]; Day 98) was 644 µg, the “Amount of sodium n-tetradecyl sulfate released Per day Calc.” value ([3]; Day 98) was 92 µg and the “Amount of sodium n-tetradecyl sulfate released Per 7 days” value ([3]; Day 105) was 1477 µg. For the same molecule, the “Amount of sodium n-tetradecyl sulfate released Per day Calc.” value ([3]; Day 105) was 211 µg, the “Amount of sodium n-tetradecyl sulfate released Per 7 days” value ([3]; Day 112) was 430 µg and the “Amount of sodium n-tetradecyl sulfate released Per day Calc.” value ([3]; Day 112) was 61.4 µg. The “Amount of sodium n-tetradecyl sulfate released Per 7 days” value ([3]; Day 119) was 600 µg, the “Amount of sodium n-tetradecyl sulfate released Per day Calc.” value ([3]; Day 119) was 85.7 µg and the “Amount of sodium n-tetradecyl sulfate released Per 7 days” value ([3]; Day 126) was 1500 µg. For the same molecule, the “Amount of sodium n-tetradecyl sulfate released Per day Calc.” value ([3]; Day 126) was 214.3 µg, the “Amount of sodium n-tetradecyl sulfate released Per 7 days” value ([3]; Day 133) was 2600 µg and the “Amount of sodium n-tetradecyl sulfate released Per day Calc.” value ([3]; Day 133) was 371 µg. For the same molecule, the “Amount of sodium n-tetradecyl sulfate released Per 7 days” value ([3]; Day 140) was 4000 µg, the “Amount of sodium n-tetradecyl sulfate released Per day Calc.” value ([3]; Day 140) was 571 µg and the “Percent of compound released after 140 days” value ([3]; initial amount 34.14 mg.) was 37%. The “Total amount of compound released after 140 days” value ([3]; initial amount 34.14 mg.) was 12.63 mg.
